# Measured values published in patent EP4806435A1, “DIHYDROCHROMENE-DERIVATIVE-CONTAINING THERAPEUTIC AGENT FOR CANCER” (Sumitomo Pharma Co., Ltd., priority 2023, dated 2025).
# pIC50: −log10 of the molar value.
# Columns and labels:
# [1] = test system: U-87 cells (IDH1 wild-type); assay: Cytotoxicity, sphere culture with LDL, combination with ezetimibe (ATP); format: cell-based, human; settings: ezetimibe at 3.3, 10, or 30 µM; 7 days; LDL 5 µg/mL
# Protocol: U-87 cells were cultured for 7 days in sphere medium supplemented with LDL at a concentration of 5 µg/mL, with either ezetimibe (a cholesterol absorption inhibitor) added at 3.3, 10, or 30 µM, Compound 1 added at 1 µM, or a combination of both agents. Cell viability was calculated in the same manner as in Example 12, and the cytotoxic effects of each treatment were compared between single-agent and combination conditions.
# U-87 cells = assay: Cytotoxicity assay of metabolites under sphere culture conditions (ATP); format: cell-based; settings: Homo sapiens, U-87 MG, 168 h, 7 days in sphere medium, read-out: IC50 (cytotoxicity, cell viability by ATP)
# Protocol: U-87 cells were cultured for 7 days in sphere medium in the presence of metabolites M2, M4, and M5, respectively. After culture, cellular ATP levels were quantified as an indicator of cell viability, and cell viability was calculated in the same manner as in Example 12 to compare cytotoxicity.
# non-human primate = assay: 4-week non-human primate toxicity study (GLP); format: in vivo
# Protocol: (§1) The initial starting dose of 20 mg/day (expressed as the present compound) was determined in accordance with the ICH S9 guideline of International Council for Harmonisation of Technical Requirements for Pharmaceuticals for Human Use (ICH). Based on a 4-week mouse toxicity study conducted in compliance with Good Laboratory Practice (GLP), the dose causing severe toxicity in 10% of the test animals (STD10) was determined to be 50 mg/kg. Applying a safety factor of 10 and interspecies scaling, the starting dose for this first-in-human (FIH) study was calculated to be 0.4 mg/kg, corresponding to a fixed dose of 24 mg for a 60-kg human. In a 4-week non-human primate toxicity study conducted in compliance with Good Laboratory Practice (GLP), the highest non-severely toxic dose (HNSTD) was determined to be 7.5 mg/kg. Applying a safety factor of 6 and interspecies scaling, the starting dose in humans was estimated to be 0.4 mg/kg, corresponding to a fixed dose of 24 mg. The final recommended starting dose for the first-in-human (FIH) study was rounded to 20 mg/day.
# U-87 GBM xenografts = assay: Tumor shrinkage in mice bearing U-87 GBM xenografts; format: in vivo
# mouse = assay: 4-week mouse toxicity study (GLP); format: in vivo
# Protocol: as §1
compound,measurement,setting,value
"O=C1[C@H](CC[C@H](O)c2ccc(F)cc2)[C@@H](c2ccc(O)cc2)N1c1ccc(F)cc1 [ezetimibe, reference compound]","cytotoxicity, single agent",[1],low cytotoxicity
"CC1(C)Oc2cc(Cl)ccc2[C@@H]2OCC3(CCN(CCNC(=O)CNC=O)CC3)C[C@H]21 [Compound M2, N-2-[(4'aR,10'bR)-8'-chloro-5',5'-dimethyl-4'a,10'b-dihydro-2'H,4'H,5'H-spiro[piperidine-4,3'-pyrano[3,2-c][1]benzopyran]-1-yl]ethyl-N^2-formylglycinamide]",pIC50,U-87 cells,5.44
CC1(C)Oc2cc(Cl)ccc2[C@@H]2OCC3(CCNCC3)C[C@H]21 [Compound M4],pIC50,U-87 cells,5.80
"CC1(C)Oc2cc(Cl)ccc2[C@@H]2OCC3(CCN(CCO)CC3)C[C@H]21 [Compound M5, 2-[(4'aR,10'bR)-8'-chloro-5',5'-dimethyl-4'a,10'b-dihydro-2'H,4'H,5'H-spiro[piperidine-4,3'-pyrano[3,2-c][1]benzopyran]-1-yl]ethan-1-ol]",pIC50,U-87 cells,5.68
"CC1(C)Oc2cc(Cl)ccc2[C@@H]2OCC3(CCN(CCn4ccnc4)CC3)C[C@H]21 [the present compound, (4'aR,10'bR)-8'-chloro-1-[2-(1H-imidazol-1-yl)ethyl]-5',5'-dimethyl-4'a,10'b-dihydro-2'H,4'H,5'H-spiro[piperidine-4,3'-pyrano[3,2-c][1]benzopyran]]",highest non-severely toxic dose (HNSTD),non-human primate,7.5 mg/kg
same,"minimum pharmacologically active dose in humans (human equivalent dose, HED)",U-87 GBM xenografts; HED of 3 mg/kg in mice bearing U-87 GBM xenografts,15 mg
same,dose at which a consistent tumor shrinkage effect was observed,U-87 GBM xenografts; mice bearing U-87 GBM xenografts,3 mg/kg
same,dose causing severe toxicity in 10% of the test animals (STD10),mouse,50 mg/kg
